From patent US8486931B2, “Substituted oxindole compounds” (Abbott GmbH & Co. KG, priority 2007, dated 2013)

target: T1, human vasopressin V1b receptor (Homo sapiens, UniProt P47901); assay: Vasopressin V1b receptor binding assay; settings: membranes from CHO-K1 cells with stably expressed human V1b receptors, 1.5 nM 3H-AVP displacement; with more than one stereogenic center: the diastereomer with stronger affinity
T1 construct: expressed in transfected cells; host or cells: CHO-K1 (cell line hV1b-3H2_CHO), membrane preparation
T1 sequence (P47901 1-424): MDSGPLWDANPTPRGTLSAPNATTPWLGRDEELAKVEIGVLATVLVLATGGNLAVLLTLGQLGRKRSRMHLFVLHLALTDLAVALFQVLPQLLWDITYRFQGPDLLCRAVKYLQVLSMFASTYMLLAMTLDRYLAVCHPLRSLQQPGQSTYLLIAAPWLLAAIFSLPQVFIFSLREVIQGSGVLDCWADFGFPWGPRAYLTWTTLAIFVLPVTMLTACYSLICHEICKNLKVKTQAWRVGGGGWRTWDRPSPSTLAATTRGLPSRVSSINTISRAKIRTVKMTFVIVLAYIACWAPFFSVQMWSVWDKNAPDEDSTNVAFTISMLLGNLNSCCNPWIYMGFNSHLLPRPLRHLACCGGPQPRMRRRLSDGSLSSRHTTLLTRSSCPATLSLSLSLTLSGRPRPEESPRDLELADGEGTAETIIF
In short: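 Membranes bearing human V1b receptor incubated 60 min at room temperature in 50 mM Tris, 10 mM MgCl2, 0.1% BSA, pH 7.4, 2% DMSO, triplicate.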

Compound | Ki [nM]
CCOc1ccccc1C1(N2CCN(C3CCN(C)CC3)CC2)C(=O)N(S(=O)(=O)c2ccc(OC)cn2)c2ccc(C#N)cc21 (racemic) [Example 83, (±)-5-Cyano-3-(2-ethoxyphenyl)-1-(5-methoxypyridine-2-sulfonyl)-3-[4-(1-methyl-piperidin-4-yl)piperazin-1-yl]-2,3-dihydro-1H-indol-2-one] | 10 to 50
CCOc1ccc(CC)cc1C1(N2CCN(c3ccnc(C)c3)CC2)C(=O)N(S(=O)(=O)c2ccc(OC)c3cccnc23)c2ccc(C#N)cc21 (racemic) [Example 160, (±)-5-Cyano-3-(2-ethoxy-5-ethyl-phenyl)-1-(5-methoxy-quinoline-8-sulfonyl)-3-[4-(2-methyl-pyridin-4-yl)-piperazin-1-yl]-2,3-dihydro-1H-indol-2-one] | < 10
CCOc1ccccc1C1(N2CCN(c3ccnc(C)c3)CC2)C(=O)N(S(=O)(=O)c2cccc3cccnc23)c2ccc(C#N)cc21 (racemic) [Example 44, (±)-5-Cyano-3-(2-ethoxyphenyl)-3-[4-(2-methylpyridin-4-yl)piperazin-1-yl]-1-(quinoline-8-sulfonyl)-2,3-dihydro-1H-indol-2-one] | 10 to 50
CCOc1ccc(OC)cc1C1(N2CCN(c3ccnc(C)c3)CC2)C(=O)N(S(=O)(=O)c2ccc(OC)c3cccnc23)c2ccc(C#N)cc21 (racemic) [Example 33, (±)-5-Cyano-3-(2-ethoxy-5-methoxyphenyl)-1-(5-methoxyquinoline-8-sulfonyl)-3-[4-(2-methylpyridin-4-yl)piperazin-1-yl]-2,3-dihydro-1H-indol-2-one] | < 10
CCOc1ccccc1C1(N2CCN(c3ccncc3)CC2)C(=O)N(S(=O)(=O)c2ccc(OC)cn2)c2ccc(C#N)cc21 (single isomer, unassigned; (+)) [Example 64, (+)-5-Cyano-3-(2-ethoxyphenyl)-1-(5-methoxypyridine-2-sulfonyl)-3-(4-pyridin-4-yl-piperazin-1-yl)-2,3-dihydro-1H-indol-2-one] | < 10
COc1ccc(C2(N3CCN(c4ccncc4)CC3)C(=O)N(S(=O)(=O)c3cccc4cccnc34)c3ccc(Cl)cc32)c(OC)c1 (racemic) [Example 1, (±)-5-Chloro-3-(2,4-dimethoxyphenyl)-3-(4-pyridin-4-ylpiperazin-1-yl)-1-(quinoline-8-sulfonyl)-1,3-dihydroindol-2-one] | < 10
(+)-5-Cyano-3-(6-chloro-2-ethoxy-pyridin-3-yl)-1-(5-methoxy-pyridine-2-sulfonyl)-3-[4-(2-methyl-pyridin-4-yl)-piperazin-1-yl]-2,3-dihydro-1H-indol-2-one [Example 152] | < 10
CCOc1nc(Cl)ccc1C1(N2CCC(N3CCNCC3)CC2)C(=O)N(S(=O)(=O)c2ccc(OC)cn2)c2ccc(C#N)cc21 (racemic) [Example 182, (±)-5-Cyano-3-(6-chloro-2-ethoxy-pyridin-3-yl)-1-(5-methoxy-pyridine-2-sulfonyl)-3-(4-piperazin-1-yl-piperidin-1-yl)-2,3-dihydro-1H-indol-2-one] | < 10
CCOc1ccccc1C1(N2CCN(c3ccncc3)CC2)C(=O)N(S(=O)(=O)c2ccc(OC)cn2)c2ccc(C#N)cc21 (racemic) [Example 22, (±)-5-Cyano-3-(2-ethoxyphenyl)-1-(5-methoxypyridine-2-sulfonyl)-3-(4-pyridin-4-yl-piperazin-1-yl)-2,3-dihydro-1H-indol-2-one] | < 10
CCOc1c(OC)cccc1C1(N2CCN(c3ccnc(C)c3)CC2)C(=O)N(S(=O)(=O)c2ccc(OC)cn2)c2ccc(C#N)cc21 (racemic) [Example 179, (±)-5-Cyano-3-(2-ethoxy-3-methoxy-phenyl)-1-(5-methoxy-pyridine-2-sulfonyl)-3-[4-(2-methyl-pyridin-4-yl)-piperazin-1-yl]-2,3-dihydro-1H-indol-2-one] | < 10
CCOc1ccc(OC)cc1C1(N2CCN(c3ccncc3)CC2)C(=O)N(S(=O)(=O)c2cccc3cccnc23)c2ccc(C#N)cc21 (racemic) [Example 13, (±)-5-Cyano-3-(2-ethoxy-5-methoxyphenyl)-3-(4-pyridin-4-yl-piperazin-1-yl)-1-(quinoline-8-sulfonyl)-2,3-dihydro-1H-indol-2-one] | < 10
CCOc1ccc(OC)cc1C1(N2CCN(c3ccnc(C(C)C)c3)CC2)C(=O)N(S(=O)(=O)c2ccc(OC)cn2)c2ccc(C#N)cc21 (single isomer, unassigned; (+)) [Example 143, (+)-5-Cyano-3-(2-ethoxy-5-methoxy-phenyl)-3-[4-(2-isopropyl-pyridin-4-yl)-piperazin-1-yl]-1-(5-methoxy-pyridine-2-sulfonyl)-2,3-dihydro-1H-indol-2-one] | < 10
CCOc1ccccc1C1(N2CCN(c3ccncc3)CC2)C(=O)N(S(=O)(=O)c2ccc(C)cn2)c2ccc(C#N)cc21 (racemic) [Example 11, (±)-5-Cyano-3-(2-ethoxyphenyl)-1-(5-methylpyridine-2-sulfonyl)-3-(4-pyridin-4-yl-piperazin-1-yl)-2,3-dihydro-1H-indol-2-one] | 10 to 50
CCOc1ccc(OC)cc1C1(N2CCN(c3ccnc(C4CC4)c3)CC2)C(=O)N(S(=O)(=O)c2ccc(OC)c3cccnc23)c2ccc(C#N)cc21 (racemic) [Example 70, (±)-5-Cyano-3-[4-(2-cyclopropylpyridin-4-yl)piperazin-1-yl]-3-(2-ethoxy-5-methoxyphenyl)-1-(5-methoxyquinoline-8-sulfonyl)-2,3-dihydro-1H-indol-2-one] | < 10
CCOc1ccc(OC)cc1C1(N2CCC(C3CCNCC3)CC2)C(=O)N(S(=O)(=O)c2ccc(OC)cn2)c2ccc(C#N)cc21 (racemic) [Example 181, (±)-5-Cyano-3-[4,4′]bipiperidinyl-1-yl-3-(2-ethoxy-5-methoxy-phenyl)-1-(5-methoxy-pyridine-2-sulfonyl)-2,3-dihydro-1H-indol-2-one] | < 10
CCOc1ccc(OC)cc1C1(N2CC3CN(c4ccncc4)CC3C2)C(=O)N(S(=O)(=O)c2ccc(OC)c3cccnc23)c2ccc(C#N)cc21 (racemic) [Example 74, (±)-5-Cyano-3-(2-ethoxy-5-methoxyphenyl)-1-(5-methoxyquinoline-8-sulfonyl)-3-(5-pyridin-4-ylhexahydropyrrolo[3,4-c]pyrrol-2-yl)-2,3-dihydro-1H-indol-2-one] | 10 to 50
CCOc1cc(F)ccc1C1(N2CCN(c3ccncc3)CC2)C(=O)N(S(=O)(=O)c2ccc(OC)cn2)c2ccc(C#N)cc21 (racemic) [Example 32, (±)-5-Cyano-3-(2-ethoxy-4-fluorophenyl)-1-(5-methoxypyridine-2-sulfonyl)-3-(4-pyridin-4-ylpiperazin-1-yl)-2,3-dihydro-1H-indol-2-one] | < 10
CCOc1ccc(CC)cc1C1(N2CCN(c3ccnc(C)c3)CC2)C(=O)N(S(=O)(=O)c2ccc(OC)cn2)c2ccc(C#N)cc21 (racemic) [Example 165, (±)-5-Cyano-3-(2-ethoxy-5-ethyl-phenyl)-1-(5-methoxy-pyridine-2-sulfonyl)-3-[4-(2-methyl-pyridin-4-yl)-piperazin-1-yl]-2,3-dihydro-1H-indol-2-one] | < 10
CCOc1nc(Cl)ccc1C1(N2CCN(C3CCNCC3)CC2)C(=O)N(S(=O)(=O)c2ccc(OC)cn2)c2ccc(C#N)cc21 (racemic) [Example 176, (±)-5-Cyano-3-(6-chloro-2-ethoxy-pyridin-3-yl)-1-(5-methoxy-pyridine-2-sulfonyl-3-(4-piperidin-4-yl-piperazin-1-yl)-2,3-dihydro-1H-indol-2-one] | < 10
COc1ccc(C)cc1C1(N2CCN(c3ccncc3)CC2)C(=O)N(S(=O)(=O)c2cccc3cccnc23)c2ccc(C#N)cc21 (racemic) [Example 51, (±)-5-Cyano-3-(2-methoxy-5-methylphenyl)-3-(4-pyridin-4-ylpiperazin-1-yl)-1-quinoline-8-sulfonyl)-2,3-dihydro-1H-indol-2-one] | < 10
CCOc1ccccc1C1(N2CCN(c3ccnc(C(C)C)c3)CC2)C(=O)N(S(=O)(=O)c2ccc(OC)cn2)c2ccc(C#N)cc21 (racemic) [Example 150, (±)-5-Cyano-3-(2-ethoxy-phenyl)-3-[4-(2-isopropyl-pyridin-4-yl)-piperazin-1-yl]-1-(5-methoxy-pyridine-2-sulfonyl)-2,3-dihydro-1H-indol-2-one] | 10 to 50
CCOc1ccc(OC)cc1C1(N2CCN(c3ccncc3)CC2)C(=O)N(S(=O)(=O)c2ccc(C)cn2)c2ccc(C#N)cc21 (racemic) [Example 47, (±)-5-Cyano-3-(2-ethoxy-5-methoxyphenyl)-1-(5-methylpyridine-2-sulfonyl)-3-(4-pyridin-4-ylpiperazin-1-yl)-2,3-dihydro-1H-indol-2-one] | < 10
CCOc1nc(Cl)ccc1C1(N2CCCN(c3ccncc3)CC2)C(=O)N(S(=O)(=O)c2ccc(OC)c3cccnc23)c2ccc(C#N)cc21 (racemic) [Example 71, (±)-5-Cyano-3-(6-chloro-2-ethoxypyridin-3-yl)-1-(5-methoxyquinoline-8-sulfonyl)-3-(4-pyridin-4-yl-[1,4]diazepan-1-yl)-2,3-dihydro-1H-indol-2-one] | 10 to 50
CCOc1ccc(OC)cc1C1(N2CCN(c3ccncc3)CC2)C(=O)N(S(=O)(=O)c2ccc(OC)cn2)c2ccc(C#N)cc21 (racemic) [Example 82, (±)-5-Cyano-3-(2-ethoxy-5-methoxyphenyl)-1-(5-methoxypyridine-2-sulfonyl)-3-(4-pyridin-4-ylpiperazin-1-yl)-2,3-dihydro-1H-indol-2-one] | < 10
